Two molecules from US20030087831A1, “1,3,4-Oxadiazolin-2-one derivatives and drugs containing these derivatives as the active ingredient” (priority 1999, published 2003) can be followed below.

Test [1] deals with T1, Human Neutrophil Elastase (HNE) (Homo sapiens, UniProt P08246).
T1 sequence (P08246 30-267): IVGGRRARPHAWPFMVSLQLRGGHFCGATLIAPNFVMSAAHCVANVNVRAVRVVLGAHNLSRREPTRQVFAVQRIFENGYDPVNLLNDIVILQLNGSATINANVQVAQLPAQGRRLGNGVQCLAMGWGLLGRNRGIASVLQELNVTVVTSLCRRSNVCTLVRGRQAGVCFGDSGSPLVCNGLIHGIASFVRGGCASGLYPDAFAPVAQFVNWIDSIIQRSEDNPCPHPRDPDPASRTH
The experiment in a line: Inhibitory effects on human neutrophil elastase (HNE). It counts as biochemical. The conditions noted are these: Dixon plot; substrate MeO-Suc-Ala-Ala-Pro-Val-p-nitroanilide; 0.1 M HEPES buffer pH 8.0; 37° C. As for the experimental part: (1) Inhibitory Effects on Human Neutrophil Elastase (HNE)
Various concentrations of test compounds or DMSO as a vehicle were added to 0.1 M HEPES buffer (pH 8.0) containing the synthetic substrate MeO-Suc-Ala-Ala-Pro-Val-p-nitroanilide (final concentration, 0.1, 0.2 or 0.4 mM), 0.5 M sodium chloride solution and 0.1% Polyethyleneglycol 6000 in a final volume of 180 μL. This mixture was pre-incubated at 37° C. for 5 minutes. Then, the reaction was started by the addition of 20 μL of each enzyme solution (final concentration, 0.2U/mL). The hydrolysis rate of substrate (mO.D./minute) was measured by continuously monitoring absorbance at 405 nm for 10 minutes at 30 seconds intervals. The Ki values were determined by Dixon plot.

The test system of test [2] is HNE-Induced Lung Hemorrhage. The experiment in a line: Inhibitory effect on HNE-induced lung hemorrhage in hamsters. Format: in vivo, male Syrian hamsters. The following applies: Mesocricetus auratus, po, 1 h; administered orally one hour before intratracheal HNE (10 U/100 μL/lung); blood volume in BALF. As for the experimental part:
(2) Inhibitory Effect on HNE-Induced Lung Hemorrhage in Hamsters Test compound or vehicle solution (Polyethyleneglycol 400:ethanol:distilled water=51:16:33) was administered orally to male Syrian hamsters. One hour after administration, animals were anesthetized with sodium pentobarbital (60 mg/kg, i.p.) and their tracheae were exposed. Saline (100 μL/lung) or HNE (10 U/100 μL/lung) were instilled intratracheally. One hour after the instillation of HNE, animals were exsanguinated by cutting the abdominal aorta. The trachea was re-exposed and cannulated, then bronchoalveolar lavage fluid (BALF) was collected by infusing and withdrawing of saline (2.5 mL/animal). Erythrocytes in 0.2 mL of BALF sample were hemolyzed by adding 1.8 mL of distilled water. The lysate was centrifuged (3000 r.p.m., 4° C., 10 minutes), and absorbance of the supernatant at 412 nm was measured spectrophotometrically to calculate blood volume in BALF using a standard curve.

In test [1], `COC(=O)N[C@H](C(=O)N1CCC[C@H]1C(=O)N[C@H](C(=O)c1nn(Cc2ccsc2)c(=O)o1)C(C)C)C(C)C` [Example 1, (methoxycarbonyl)-L-valyl-N-[(1S)-([3-(thiophen-3-ylmethyl)-1,3,4-oxadiazolin-2-one-5-yl]carbonyl)-2-methylpropyl]-L-prolinamide] returned an inhibition constant Ki of 4.27 nM. Turning to `COC(=O)N[C@H](C(=O)N1CCC[C@H]1C(=O)N[C@H](C(=O)c1nn(-c2ccccc2)c(=O)o1)C(C)C)C(C)C` [Example 2, (methoxycarbonyl)-L-valyl-N-[(1S)-([3-phenyl-1,3,4-oxadiazolin-2-one-5-yl]carbonyl)-2-methylpropyl]-L-prolinamide], in test [1], the Ki was 3.41 nM. For the same molecule, the ED50 in test [2] turned out to be 18.6 mg/kg.
